Data on one sequence can be found in PMC12677653, “Inhibition of Tumor Lipogenesis and Growth by Peptide‐Based Targeting of SREBP Activation” (Advanced Science, 2025).

In experiment [1] the test system is SREBP1/SREBP2 target genes. As to the kind of experiment: Quantitative PCR of SREBP target genes in Huh7 cells. The format is cell-based, human. Conditions: peptide 15 μM, IGF1 100 ng/mL 10 h, qPCR, n = 3. Here is the method: Figure 1 The Insig1/2 loop 1 peptide binds to S90‐phosphorylated PCK1 and blocks PCK1‐mediated SREBP activation and tumor cell proliferation. Immunoblotting analyses were performed using the indicated antibodies; representative results from three independent experiments are shown (IP, immunoprecipitation; WB, western blot). a) Huh7 cells expressing various Insig1 (top) or Insig2 (bottom) truncation mutants were treated with or without IGF1 (100 ng mL^−1) for 1 h. b,c) Biolayer interferometry assays (Sartorius Octet) were employed to measure the binding affinity of Insig1/2 loop 1 peptide to GST‐PCK1 or GST‐PCK1 pS90 proteins. Data represent three independent experiments. d) Flag‐PCK1‐expressing Huh7 cells were pretreated with Insig1/2 loop 1 peptide (15 µM) for 1 h before IGF1 (100 ng mL^−1) stimulation. e) Huh7 cells were pretreated with low (7.5 µM) or high (15 µM) concentrations of Insig1/2 loop 1 peptide for 1 h before IGF1 (100 ng mL^−1) stimulation. f) Huh7 cells transiently transfected with β‐galactosidase and SRE‐driven luciferase reporter vectors were pretreated with Insig1/2 loop 1 peptide (15 µM) for 1 h, followed by stimulation with or without IGF1 (100 ng mL^−1) for 14 h. SRE luciferase activity was normalized to β‐galactosidase activity. Data represent the mean ± SD (n = 3). Statistical significance was determined by one‐way analysis of variance (ANOVA). g) Following pretreatment with Insig1/2 loop 1 peptide (15 µM) and IGF1 stimulation (100 ng mL^−1, 8 h), Huh7 cells were subjected to immunofluorescence analysis (scale bar: 10 µm). h) Quantitative PCR analysis of SREBP1 target gene GPAM in Huh7 cells pretreated with Insig1/2 loop 1 peptide (15 µM) and stimulated with IGF1 (100 ng mL^−1) for 10 h. Data represent the mean ± SD (n = 3). Statistical significance was determined by one‐way analysis of variance (ANOVA). i) Quantitative PCR analysis of SREBP1 target gene FASN in Huh7 cells pretreated with Insig1/2 loop 1 peptide (15 µM) and stimulated with IGF1 (100 ng mL^−1) for 10 h. Data represent the mean ± SD (n = 3). Statistical significance was determined by one‐way analysis of variance (ANOVA). j) Intracellular triglyceride (TG) content was quantified in Huh7 cells pretreated with Insig1/2 loop 1 peptide (25 µM) and stimulated with IGF1 (100 ng mL^−1) for 24 h. […] Statistical significance was determined by one‐way analysis of variance (ANOVA). k) Cell proliferation was assessed by automated cell counting after 72 h of IGF1 stimulation (100 ng mL^−1) in Huh7 cells pretreated with Insig1/2 loop 1 peptide (25 µM) for 1 h. […] Statistical significance was determined by one‐way analysis of variance (ANOVA). l) FLAG‐Insig1, Flag‐Insig1 S207A or FLAG‐ Insig1 S207D was expressed in Huh7 cells with depletion of Insig1 by expressing Insig1 shRNA. […]
In general terms: Quantitative PCR measures a nucleic acid by following its amplification.

Experiment [2] concerns Insig1 pS207/Insig2 pS151, SREBP1, Ki67. As to the kind of experiment: IHC analysis of mouse tumors derived from Huh7 cells. Type of experiment: in vivo, BALB/c athymic nude mice. Particulars: peptide given as LNP@Insig1/2 loop 1 peptide 10 mg/kg iv, lenvatinib mesylate 2 mg/kg oral. Here is the method: Representative micrographs are shown (scale bar: 20 µm). b,c) Cryosections of mouse tumor tissues were prepared for histological analysis. (b) Lipid accumulation was assessed by Oil Red O staining. Representative micrographs are shown (scale bar: 20 µm). (c) Apoptotic cells were detected by TUNEL assay. Representative micrographs are shown (scale bar: 20 µm). d,e) Quantitative analysis of (d) apoptotic areas (TUNEL‐positive regions) and (e) lipid droplet counts (Oil Red O‐positive particles) was performed. Data represent the mean ± SD (n = 4). Statistical significance was determined by one‐way analysis of variance (ANOVA). ** p < 0.01, **** p < 0.0001, ns, no significance.
As described previously,^[ [39] ^] IHC staining was performed using the Vectastain ABC kit (Vector Laboratories) according to the manufacturer's instructions. Sections of paraffin‐embedded xenograft tumors were stained with antibodies against Ki67, SREBP1, Insig1 pS207/Insig2 pS151, and nonspecific IgG was used as a negative control. Paraffin‐embedded human liver tumor sections were stained with antibodies against Ki67, SREBP1, Insig1 pS207/Insig2 pS151, with nonspecific IgG as a negative control. The tissue sections were quantitatively scored according to the percentage of positive cells and staining intensity. […] The intensity of staining was rated on a scale of 0 to 3: 0, negative; 1, weak; 2, moderate; and 3, strong. The study then combined the proportion and intensity scores to obtain a total score (range, 0–8).

For the sequence “RKKRRQRRRLYPCIDSHLGEPHKFKRE [Insig1/2 loop 1 peptide]”, in experiment [1], the “SREBP2-mediated expression of HMGCS1” value is on record as “suppressed”, the “SREBP2-mediated expression of LDLR” value is “suppressed”, the “expression of FASN” value is reported as “markedly inhibited” and the “expression of GPAM” value is reported as “markedly inhibited”. Besides, in experiment [2], the “Insig1 S207/Insig2 S151 phosphorylation in tumors” value is on record as “reduced”; the “Ki67 expression in tumors” value is “reduced”; the “SREBP1 expression and nuclear accumulation in tumors” value is recorded as “reduced”.
